Measurements reported in patent US20260069694A1, “IDENTIFICATION OF HIGHLY IMMUNOSUPRESIVE TREG POPULATION IN TUMOR MICROENVIRONMENTS” (THE TRUSTEES OF COLUMBIA UNIVERSITY IN THE CITY OF NEW YORK, priority 2023, published 2026).
Entries after “also recorded” stand apart in the source; their conditions may differ.

Tested on: naïve CD4+ T cells / CD4+CD25+Foxp3+ iTregs
Assay: iTreg induction from naive CD4+ T cells in the absence or presence of iRGD or iRGE
Format: cell-based, mouse
Protocol: Naïve CD4^+ T cells and nTregs were isolated from the spleen of healthy C57B6129SF1/J mice by magnetic separation using a mouse CD4+ T cell isolation kit and PE-conjugated anti-mouse CD25 with anti-PE magnetic separation micro beads (Miltenyi Biotec™). The isolated T cells were stimulated with anti-CD3/CD28 beads (×25 dilution; Miltenyi Biotec™) in the presence or absence of recombinant mouse TGF-β1 (5 ng/ml; Bio-Techne™ Corporation) for 3 days. iRGD (100 μM) or iRGE (100 μM) peptide was added to the cultures in some experiments. To study the effect of TGF-β1 on the induction of αvβ5 integrin+ iTregs, naïve CD4+ T cells were cultured with anti-CD3/CD28 beads (x 25 dilution) and TGF-β1 (5 ng/ml) in the presence or absence of varying concentrations of a TGF-βR1 inhibitor (LY2157299; Selleck™ Chemicals LLC). To study the effect of TCR stimulation on the induction of αvβ5 integrin+ iTregs, naïve CD4+ T cells treated with varying concentrations of plate-coated anti-mouse CD3 Ab (eBioscience™) in the presence of soluble anti-mouse CD28 Ab (2 μg/ml) (eBioscience™) and TGF-β1 (5 ng/ml). The cells were subjected to flow cytometry as described elsewhere.
For the data presented in FIG. 31, FIG. 32A, and FIG. 32B, naïve CD4+ T cells were stimulated with anti-CD3/CD28 Abs and TGF-β1 in the absence or presence of iRGD or iRGE. Flow cytometry was performed to quantify the proportion of CD4+CD25+Foxp3+ iTregs (see FIG. 31) and αvβ5 integrin+ cells among the iTregs (See FIG. 32A). Apoptosis of αvβ5 integrin+ iTregs was quantitated by measuring cleaved caspase 3 using flow cytometry (see FIG. 32B; n=3).
To investigate whether iRGD Reduces CD4+CD25+Foxp3+ iTregs in an RGD-Dependent Manner in Vitro, naïve CD4+ T cells were stimulated with anti-CD3/CD28 Abs and TGF-β1 in the absence or presence of the iRGD or iRGE peptide. The resulting cells were subjected to flow cytometry to analyze the expression of CD25 and Foxp3 in the CD4+ T cells (FIG. 33A) and the expression of the αvβ5 integrin and NRP-1 on CD4+CD25+Foxp3+ iTregs (FIG. 33B). The bar diagram in (FIG. 33C) summarizes the proportion of NRP-1+ cells among the iTregs. The statistical analysis used was the one-way ANOVA; p=0.8221. n=3 per group.
The proportion of apoptotic αvβ5 integrin+ iTregs (FIG. 34) and CD4+Foxp3neg T cells (FIG. 35) was quantitated by measuring cleaved caspase 3 using flow cytometry. The statistical analysis used was Welch's t test; p=0.0705 (n=3). The dot plots and histograms of FIG. 33C and FIG. 35 show representative data from the 3 independent experiments. The error bars indicate the mean±standard error; N.S., not significant.

[1] = peptide 100 μM, anti-CD3/CD28 Abs and TGF-β1

Sequence: CRGDKGPDC [iRGD]
- apoptosis of CD4+Foxp3neg T cells (cleaved caspase 3) (flow cytometry): Neither iRGD nor iRGE increased the apoptosis
- apoptosis of αvβ5 integrin+ Tregs (cleaved caspase 3) (flow cytometry): induces apoptosis of αvβ5 integrin^+ Tregs in an RGD-dependent manner; also recorded: increased apoptosis
- proportion of NRP-1-positive iTregs (peptide 100 μM): did not alter the proportion
- proportion of CD4+CD25+Foxp3+ iTregs [1]: reduction
- αvβ5 integrin-positive population among the iTregs [1]: reduction
